The text below walks through data of patent US20100093721A1, “PHENYL AND HETEROARYL SUBSTITUTED THIENO[2,3-d]PYRIMIDINES AND THEIR USE AS ADENOSINE A2a RECEPTOR ANTAGONISTS” (priority 2008, published 2010).

Each structure is given as a SMILES string. Counter-ions that a name gives are not always drawn.

By Ki is commonly meant the equilibrium dissociation constant of an inhibitor or competing ligand from its target.

In test [1] the target is T1, human adenosine A2a receptor (Homo sapiens, UniProt P29274).
T1 construct: expressed in transfected cells; host or cells: CHO-K1
Kind of test: Adenosine A2a Receptor Functional Assay (A2AGAL2). The test is classed as cell-based. Conditions: CHO-K1 cells, cAMP inducible beta-galactosidase reporter, 15 nM NECA agonist challenge. The procedure:
Adenosine A2a Receptor Functional Assay (A2AGAL2)
Prior to assay, these plates were cultured for two days at 37° C., 5% CO2, 90% Rh. On the day of the functional assay, culture media was removed and replaced with 45 uL assay medium (Hams/F-12 Modified (Mediatech #10-080CV) supplemented w/0.1% BSA). Test compounds were diluted and 11 point curves created at a 1000× concentration in 100% DMSO. Immediately after addition of assay media to the cell plates, 50 nL of the appropriate test compound antagonist or agonist control curves were added to cell plates using a Cartesian Hummingbird. […] A control curve of NECA, a DMSO/Media control, and a single dose of Forskolin (Sigma F3917) were also included on each plate. After additions, cell plates were allowed to incubate at 37° C., 5% CO2, 90% Rh for 5.5-6 hours. After incubation, media was removed, and cell plates were washed 1×50 uL with DPBS w/o Ca & Mg (Mediatech 21-031-CV). Into dry wells, 20 uL of 1× Reporter Lysis Buffer (Promega E3971 (diluted in dH2O from 5× stock)) was added to each well and plates frozen at −20° C. overnight. For β-galactosidase enzyme colorimetric assay, plates were thawed out at room temperature and 20 μL 2× assay buffer (Promega) was added to each well. Color was allowed to develop at 37° C., 5% CO2, 90% Rh for 1-1.5 h or until reasonable signal appeared. The colorimetric reaction was stopped with the addition of 60 μL/well 1M sodium carbonate. Plates were counted at 405 nm on a SpectraMax Microplate Reader (Molecular Devices). Data was analyzed in Microsoft Excel and IC/EC50 curves were fit using a standardized macro.

Test [2] deals with T2, human adenosine A1 receptor (Homo sapiens, UniProt P30542).
T2 construct: expressed in transfected cells; host or cells: CHO-K1
T2 sequence (P30542 1-326): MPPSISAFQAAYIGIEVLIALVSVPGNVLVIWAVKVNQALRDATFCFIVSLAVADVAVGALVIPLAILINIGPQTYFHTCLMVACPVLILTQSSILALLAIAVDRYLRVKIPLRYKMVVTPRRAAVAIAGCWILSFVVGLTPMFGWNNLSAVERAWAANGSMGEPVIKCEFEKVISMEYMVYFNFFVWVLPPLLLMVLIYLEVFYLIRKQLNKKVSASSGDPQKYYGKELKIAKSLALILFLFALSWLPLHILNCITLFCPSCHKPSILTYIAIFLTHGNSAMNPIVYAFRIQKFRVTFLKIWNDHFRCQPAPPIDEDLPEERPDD
Kind of test: Adenosine A1 Receptor Functional Assay (A1GAL2). The test is classed as cell-based. Conditions: CHO-K1 cells, cAMP inducible beta-galactosidase reporter, 4 nM r-PIA/1 uM Forskolin challenge. As to the method: Adenosine A1 Receptor Functional Assay (A1GAL2)
To initiate the functional assay, cryopreserved CHO-K1 cells overexpressing the human adenosine A1 receptor and containing a cAMP inducible beta-galactosidase reporter gene were thawed, centrifuged, DMSO containing media removed, and then seeded with fresh culture media into clear 384-well tissue culture treated plates (BD #353961) at a concentration of 10K cells/well. Prior to assay, these plates were cultured for two days at 37° C., 5% CO2, 90% Rh. On the day of the functional assay, culture media was removed and replaced with 45 uL assay medium (Hams/F-12 Modified (Mediatech #10-080CV) supplemented w/0.1% BSA). Test compounds were diluted and 11 point curves created at a 1000× concentration in 100% DMSO. Immediately after addition of assay media to the cell plates, 50 nL of the appropriate test compound antagonist or agonist control curves were added to cell plates using a Cartesian Hummingbird. Compound curves were allowed to incubate at room temperature on cell plates for approximately 15 minutes before addition of a 4 nM r-PIA (Sigma P4532)/1 uM Forskolin (Sigma F3917) agonist challenge (5 uL volume). A control curve of r-PIA in 1 uM Forskolin, a DMSO/Media control, and a single dose of Forskolin were also included on each plate. After additions, cell plates were allowed to incubate at 37° C., 5% CO2, 90% Rh for 5.5-6 hours. After incubation, media was removed, and cell plates were washed 1×50 uL with DPBS w/o Ca & Mg (Mediatech 21-031-CV). Into dry wells, 20 uL of 1× Reporter Lysis Buffer (Promega E3971 (diluted in dH2O from 5× stock)) was added to each well and plates frozen at −20° C. overnight. For β-galactosidase enzyme calorimetric assay, plates were thawed out at room temperature and 20 μL 2× assay buffer (Promega) was added to each well. Color was allowed to develop at 37° C., 5% CO2, 90% Rh for 1-1.5 h or until reasonable signal appeared. The calorimetric reaction was stopped with the addition of 60 μL/well 1M sodium carbonate. Plates were counted at 405 nm on a SpectraMax Microplate Reader (Molecular Devices). Data was analyzed in Microsoft Excel and IC/EC50 curves were fit using a standardized macro.

Test [3] deals with T3, human A2a adenosine receptor (Homo sapiens, UniProt P29274).
T3 construct: purchased PerkinElmer RB-HA2a; host or cells: HEK293 plasma membranes
Kind of test: Ligand Binding Assay for Adenosine A2a Receptor. Conditions: HEK293 plasma membrane, radioligand [3H]CGS21680; read-out: A2A-B Ki. As to the method:
Ligand Binding Assay for Adenosine A2a Receptor
Ligand binding assay of adenosine A2a receptor was performed using plasma membrane of HEK293 cells containing human A2a adenosine receptor (PerkinElmer, RB-HA2a) and radioligand [^3H]CGS21680 (PerkinElmer, NET1021). Assay was set up in 96-well polypropylene plate in total volume of 200 μL by sequentially adding 20 μL 1:20 diluted membrane, 130 μL assay buffer (50 mM Tris.HCl, pH7.4 10 mM MgCl2, 1 mM EDTA) containing [^3H] CGS21680, 50 μL diluted compound (4×) or vehicle control in assay buffer. Nonspecific binding was determined by […] NECA. Reaction was carried out at room temperature for 2 hours before filtering through 96-well GF/C filter plate pre-soaked in 50 mM Tris.HCl, pH7.4 containing 0.3% polyethylenimine. Plates were then washed 5 times with cold 50 mM Tris.HCl, pH7.4, dried and sealed at the bottom. Microscintillation fluid 30 μL was added to each well and the top sealed. Plates were counted on Packard Topcount for [^3H]. Data was analyzed in Microsoft Excel and GraphPad Prism programs. (Varani, K.; Gessi, S.; Dalpiaz, A.; Borea, P. A. British Journal of Pharmacology, 1996, 117, 1693)

T3 sequence (P29274 whole entry): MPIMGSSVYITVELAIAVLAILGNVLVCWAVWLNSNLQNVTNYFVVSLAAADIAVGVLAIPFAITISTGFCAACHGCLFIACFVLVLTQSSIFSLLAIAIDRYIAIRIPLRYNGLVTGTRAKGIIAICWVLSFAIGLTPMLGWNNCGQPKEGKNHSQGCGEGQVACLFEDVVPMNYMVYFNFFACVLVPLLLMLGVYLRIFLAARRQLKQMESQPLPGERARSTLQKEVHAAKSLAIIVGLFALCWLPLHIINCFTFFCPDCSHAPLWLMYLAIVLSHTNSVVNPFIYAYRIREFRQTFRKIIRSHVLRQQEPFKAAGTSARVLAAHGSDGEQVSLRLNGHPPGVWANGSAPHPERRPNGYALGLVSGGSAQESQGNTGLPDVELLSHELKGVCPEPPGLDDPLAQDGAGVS
T1 sequence (P29274 whole entry): as above

Consider `Cc1ccc(-c2nc(N)c3cc(C(C)c4ccccc4)sc3n2)o1` (racemic) [Example 16, (±)-2-(5-Methyl-furan-2-yl)-6-(1-phenyl-ethyl)-thieno[2,3-d]pyrimidin-4-ylamine], for which the inhibitory constant (Ki) was found to be 47.8 nM in test [1] and 910 nM in test [2].
For `Cc1csc(-c2nc(N)c3cc(C(C)c4ccccc4)sc3n2)n1` (racemic) [Example 17, (±)-2-(4-Methyl-thiazol-2-yl)-6-(1-phenyl-ethyl)-thieno[2,3-d]pyrimidin-4-ylamine], the Ki amounted to 100 nM in test [1] and 1420 nM in test [2].
In the case of `CC(c1ccccc1)c1cc2c(N)nc(-c3ncco3)nc2s1` (racemic) [Example 21, (±)-2-Oxazol-2-yl-6-(1-phenyl-ethyl)-thieno[2,3-d]pyrimidin-4-ylamine], the Ki in test [1] turned out to be 19.4 nM; in test [3] it was 72.7 nM; in test [2] it was 1180 nM.
With `Cc1ccc(-c2nc(N)c3cc(Cc4ccccc4)sc3n2)o1` [Example 1, 6-Benzyl-2-(5-methyl-furan-2-yl)-thieno[2,3-d]pyrimidin-4-ylamine], the Ki was determined as 11 nM in test [1], 11.9 nM in test [3] and 279 nM in test [2].
Turning to `Cc1ccc(-c2nc(N)c3cc(C(O)c4ccccc4)sc3n2)o1` (centres unmarked) [Example 2, [4-Amino-2-(5-methyl-furan-2-yl)-thieno[2,3-d]pyrimidin-6-yl]-phenyl-methanol], the figures for the Ki in test [1] and in test [2] were 2.28 nM and 20.8 nM, respectively.
With `Cc1ccc(-c2nc(N)c3cc(C(=O)c4cccc(CN5CCOCC5)c4)sc3n2)o1` [Example 5, [4-Amino-2-(5-methyl-furan-2-yl)-thieno[2,3-d]pyrimidin-6-yl]-(3-morpholin-4-ylmethyl-phenyl)-methanone], the Ki is 230 nM in test [1], 100 nM in test [3] and 505 nM in test [2].
With `Cc1ccc(-c2nc(N)c3cc(C(=O)c4ccccc4CN4CCOCC4)sc3n2)o1` [Example 7, [4-Amino-2-(5-methyl-furan-2-yl)-thieno[2,3-d]pyrimidin-6-yl]-(2-morpholin-4-ylmethyl-phenyl)-methanone], the Ki in test [3] worked out at 328 nM.
`CCc1ccc(-c2nc(N)c3cc(Cc4ccccc4)sc3n2)o1` [Example 8, 6-Benzyl-2-(5-ethyl-furan-2-yl)-thieno[2,3-d]pyrimidin-4-ylamine]: the Ki is 48.8 nM in test [1] and 223 nM in test [2].
For `C=C(c1ccccc1)c1cc2c(N)nc(-c3nc(C)cs3)nc2s1` [Example 9, 2-(4-Methyl-thiazol-2-yl)-6-(1-phenyl-vinyl)-thieno[2,3-d]pyrimidin-4-ylamine], in that order: 31 nM and greater than 594 nM.
On to `Cc1csc(-c2nc(N)c3cc(C4(c5ccccc5)CC4)sc3n2)n1` [Example 10, 2-(4-Methyl-thiazol-2-yl)-6-(1-phenyl-cyclopropyl)-thieno[2,3-d]pyrimidin-4-ylamine], for which the results for the Ki in test [1] and in test [2] were 107 nM and greater than 610 nM, respectively.
Take `COc1ccccc1Cc1cc2c(N)nc(-c3nc(C)cs3)nc2s1` [Example 15, 6-(2-Methoxy-benzyl)-2-(4-methyl-thiazol-2-yl)-thieno[2,3-d]pyrimidin-4-ylamine]: the Ki in test [1] came out at 13.2 nM; in test [2], 186 nM.
For `N#Cc1ccc(-c2nc(N)c3cc(Cc4ccccc4)sc3n2)o1` [Example 18, 5-(4-Amino-6-benzyl-thieno[2,3-d]pyrimidin-2-yl)-furan-2-carbonitrile], in that order: 304 nM and 3160 nM.
For `Nc1nc(-c2cnco2)nc2sc(Cc3ccccc3)cc12` [Example 19, 6-Benzyl-2-oxazol-5-yl-thieno[2,3-d]pyrimidin-4-ylamine], in that order: 2.48 nM and 100 nM.
For `Cn1cnc(-c2nc(N)c3cc(Cc4ccccc4)sc3n2)c1` [Example 20, 6-Benzyl-2-(1-methyl-1H-imidazol-4-yl)-thieno[2,3-d]pyrimidin-4-ylamine] the same measures were 539 nM and 2330 nM.
With `Nc1nc(-c2ccc(C3CC3)o2)nc2sc(Cc3ccccc3)cc12` [Example 23, 6-Benzyl-2-(5-cyclopropyl-furan-2-yl)-thieno[2,3-d]pyrimidin-4-ylamine], the Ki was found to be 263 nM in test [1] and 861 nM in test [2].
With `N#Cc1cccc(-c2nc(N)c3cc(Cc4ccccc4)sc3n2)n1` [Example 24, 6-(4-Amino-6-benzyl-thieno[2,3-d]pyrimidin-2-yl)-pyridine-2-carbonitrile], the Ki is 26.4 nM in test [1] and greater than 1040 nM in test [2].
For `Nc1nc(-c2ncccn2)nc2sc(Cc3ccccc3)cc12` [Example 25, 6-Benzyl-2-pyrimidin-2-yl-thieno[2,3-d]pyrimidin-4-ylamine hydrochloride] the same measures were 17.5 nM and 618 nM.
For `Cc1nc(-c2nc(N)c3cc(Cc4ccccc4)sc3n2)cs1` [Example 28, 6-Benzyl-2-(2-methyl-thiazol-4-yl)-thieno[2,3-d]pyrimidin-4-ylamine], in that order: 57.2 nM and 263 nM.
For `Nc1nc(-c2cnccn2)nc2sc(Cc3ccccc3)cc12` [Example 32, 6-Benzyl-2-pyrazin-2-yl-thieno[2,3-d]pyrimidin-4-ylamine], in that order: 2.42 nM and 90.9 nM.
In the case of `COc1ccccc1Cc1cc2c(N)nc(-c3ccc(C(F)F)o3)nc2s1` [Example 39, 2-(5-Difluoromethyl-furan-2-yl)-6-(2-methoxy-benzyl)-thieno[2,3-d]pyrimidin-4-ylamine], the Ki in test [1] worked out at 13 nM; in test [2], 516 nM.
For `COc1ccccc1C(O)c1cc2c(N)nc(-c3ccc(C(F)F)o3)nc2s1` (centres unmarked) [Example 45, [4-Amino-2-(5-difluoromethyl-furan-2-yl)-thieno[2,3-d]pyrimidin-6-yl]-(2-methoxy-phenyl)-methanol] the same measures were 4.37 nM and 34.4 nM.
